The values that follow come from US11969431B2, “Formulations for treatment of post-traumatic stress disorder” (Glytech LLC, priority 2017, dated 2024).

“Also recorded” adds a separate entry of the source.

Data set [1] in a line: Pharmacokinetics of D-cycloserine in humans after 500 mg (Zhu et al. 2001). It counts as in vivo. As to conditions: corresponding to AUC over 24 hr. An excerpt:
Critical parameters include maximum (peak) concentration achieved (Cmax), time to maximum concentration (Tmax) and area under the curve (AUC) during the dosing interval.

Data set [2] can be described thus: Pharmacokinetics of DCS in rodent, plasma level by UPLC/MS/MS. Format: in vivo, C57BL/6J mice. An excerpt:
Male C57BL/6J mice (8 weeks old) from Jackson Laboratories (Bar Harbor, Maine) were used. Upon receipt, mice were assigned unique identification numbers (tail marked) and were group housed in OPTImice cages. All animals were acclimated to the colony room for 1 week prior to testing. During the period of acclimation, animals were examined on a regular basis, handled, and weighed to assure adequate health and suitability. Animals were maintained on a 12/12 light/dark cycle. The room temperature was maintained between 20 and 23° C. with a relative humidity maintained between 30% and 70%. Chow and water were provided ad libitum for the duration of the study. All testing was performed during the animal's light cycle phase.
Sample were collected at 30, 60 and 120 min from separate animals. Mean plasma levels across the 30-120 min timepoint was used for analysis. At each time point, trunk blood was collected in tubes containing K2EDTA and kept on ice for short-term storage. Within 15 minutes of blood collection, tubes were centrifuged for 10 minutes at 10,000 RPM in a refrigerated centrifuge. The supernatant (plasma) was extracted and transferred to pre-labeled tubes on dry ice. Samples were stored at approximately −80° C. until analyses.
Analysis of DCS in plasma and brain samples were performed utilizing an UPLC/MS/MS system consisted of an Acquity UPLC chromatographic system and a Quattro Premier XE triple quad mass spectrometer, both from Waters.
The range of standards utilized was 1.0-1000 ng/mL. Plasma samples were prepared in the same manner but with 10 μL of sample and 90 μL of the internal standard mix to provide 100 μL of sample after dilution for triplicate analysis.
The internal standards D9-Ach (parent 154.95DA to fragment 86.7DA) was incorporated into the samples to correct for sample matrix and instrument variability providing a more robust data set.

The next data set deals with C57BL/6J mice. Nature of the data set: Open field (OF) test, locomotor activity. The settings on record: for Locomotor activity vs. vehicle: 30 min after administration; for Locomotor activity, Mean distance travelled over 30 min: C57BL/6J mice.
The nature of data set [3]: Pharmacokinetics of 250 mg PO D-cycloserine every 12 hrs in healthy volunteers (Park et al. 2015). It counts as in vivo, humans. As to conditions: 250 mg PO every 12 hrs; corresponding to AUC over 12 hrs.
Data set [4] concerns the target T1, NMDAR (Homo sapiens, UniProt Q05586).
T1 construct: endogenous in cells; host or cells: human subjects in vivo (neuronal receptors); no isolated protein
Nature of the data set: D-cycloserine plasma concentrations linked to agonist, antagonist and toxic effects; summary of human PK studies. Format: in vivo, humans. As to conditions: consistent finding of human PK studies. The method, then:
D-cycloserine is an anti-tuberculosis medication that also acts as a partial glycine-site […] (aka mixed agonist/antagonist). […] Plasma concentrations associated with primarily agonist effects are primarily […]. Plasma concentrations associated with antagonist effects are >25 μg/mi. Increased liability for toxicity is observed at plasma levels >35 μg/mL.
Accordingly, the daily dose for producing such plasma levels will necessarily be above 500 mg/day, as described above.

In another data set the test system is Wistar-Kyoto (WKY) rats. The data set is described as follows: Cued fear conditioning / extinction training, freezing behavior in WKY rats. It counts as in vivo, rat. The settings on record: for Freezing behavior, direction of change vs. vehicle: WKY rats, across days 1 and 3. The text has this: Inbred Wistar-Kyoto (WKY) rats have been used as models of several behavioral deficits, such as stress vulnerability and sleep disturbance.
Fear memories are crucial in psychiatric conditions such as PTSD. Pavlovian fear conditioning (FC) test is a widely-used behavioral assay in rodents for measurement of aversive learning and memory through learned associations between aversive stimulus (a mild electric shock) and a specific cue (e.g., a tone; cued conditioning) or a context in which electric shock had occurred (contextual conditioning). Once the association is established, the conditioned stimulus (CS, i.e. tone or context) can induce fear response in a similar manner to unconditioned stimulus (US, i.e. electric shock). However, if CS repeatedly presents without combination of US, extinction occurs in normal animals. Fear extinction is usually regarded as a new inhibitory learning after repeated or prolonged CS presentations without the US, which causes a gradual decrease in the magnitude and/or frequency of the conditioned response (i.e. freezing response in FC test). Deficits in such inhibitory learning can be regarded as a hallmark of clinical PTSD.
Young adult (about 7 weeks of age), male WKY and Wistar rats purchased from Charles River Laboratory were used in this study. Upon receipt, animals were group-housed (2 per cage) and acclimated for at least 7 days. All rats were examined, handled, and weighed prior to initiation of the study to assure adequate health and suitability. During the course of the study, 12/12 light/dark cycles were maintained. The room temperature was maintained between 20 and 23° C. with a relative humidity maintained around 50%. Rats were randomly assigned to each treatment group. All testing was conducted during the animals' light cycle.
When combined with DSC, the combinations were given in a cocktail 30 minute prior to extinction test • D-CPP-ene (5 mg/kg) was be dissolved in acidified saline and administered s.c 30 min prior to extinction test at a dose volume of 2 ml/kg • Lurasidone (Lur, 0.2 mg/kg was dissolved in saline and administered IP 30 min prior to test at a dose volume of 1 ml/kg • Quetiapine (QTP, 10 mg/kg) was dissolved in acidified saline and administered s.c 30 min prior to test at a dose volume of 1 ml/kg
The experiment was conducted in the fear conditioning system manufactured by Coulbourn Instruments (PA, USA). Animal's body movements are captured with a video system and the FreezeFrame software, and freezing is analyzed automatically by the FreezeView software (Coulbourn Instruments, PA, USA).
Fear Conditioning Training: Animals were exposed to 5 CS-US pairings of a 10 sec tone (70 dB conditioned stimulus/CS) co-terminating with a brief electric shock (0.5 mA for 1.0 sec unconditioned stimulus/US). The 5 CS-US pairings are separated by a 60 sec interval with the first CS at 120 s. The rats stage in boxes for one minute after the last shock before being moved out.
Extinction training: Extinction training was conducted twice at 24 and 72 hr post FC training. A cued FC extinction paradigm was applied. The extinction training was conducted in the “cylinder”, a changed context which is different from the boxes of FC training. The extinction training lasted 32-40 min, including 8-10 identical bins. Each bin includes a 2 min tone period followed by a 2 min no-tone period (inter-trial interval, ITI).
Percent freezing during bins 7-8 of extinction trainings (24 hr and 72 hr) was used to evaluate effectiveness of treatment. Data were analyzed by […] analyses of variance (ANOVA), with treatment/group and extinction stage (cues or bins) set as factors. Fisher LSD method was used in Post hoc comparisons if applicable.

In the next data set the test system is mice. The data set is described as follows: Marble burying test. It counts as in vivo. As to conditions: Example 3.
Data set [5] addresses T1, NMDAR. The settings on record: cited from earlier work.

As to `N[C@@H]1CON=C1O` [D-cycloserine, 3-Isoxazolidinone, 4-amino-, (4R)-(9CI)], in data set [1], the “median sustained plasma level” value is reported as 8.9 microgram/mL. Also, the DCS plasma level result in data set [2] (30 mg/kg IP, mice, mean across 30-120 min, difference from 25 not significant (p=0.2)) is “below 25 microgram/mL”; in data set [2] (100 mg/kg and above IP, mice, mean across 30-120 min, p<0.01) it was over 25 microgram/mL; in data set [2] (300 mg/kg DCS as in prior examples), over 25 micrograms/mL. Also, the “Locomotor activity vs. vehicle” value is on record as “not significantly affected” with C57BL/6J mice (D-cycloserine 30 mg/kg, p=0.5); “significantly increased” in the data set with C57BL/6J mice (D-cycloserine 300 mg/kg, p<0.001); “significantly increased” with C57BL/6J mice (D-cycloserine 1000 mg/kg, p<0.001). In addition, the “Locomotor activity, Mean distance travelled over 30 min” value in the data set with C57BL/6J mice (DCS 30 mg/kg IP) stood at 4432.1; with C57BL/6J mice (DCS 300 mg/kg IP), 7588.5. For the same compound, the mean plasma level in data set [3] is recorded as 20. 2 microgram/mL. Also, on NMDAR [4], the “Sustained plasma level following 500 mg administration” value is reported as “below 25 microgram/mL”. Further, the “Percentage WKY animals showing freezing behavior >85% of the time in response to cue stimuli across day 1 and 3 following fear conditioning, Mean” value in the data set on Wistar-Kyoto (WKY) rats (DCS 30 mg/kg IP 30 min prior to extinction test) came out at 0.281; in the data set with Wistar-Kyoto (WKY) rats (DCS 300 mg/kg IP 30 min prior to extinction test), 0.113. Besides, the “Freezing behavior, direction of change vs. vehicle” value in the data set on Wistar-Kyoto (WKY) rats (DCS 30 mg/kg IP) is “no significant effect on freezing behavior”; in the data set on Wistar-Kyoto (WKY) rats (DCS 300 mg/kg IP, listed as DCS), “significant reduction in freezing behavior; also recorded: Decrease”. In addition, the “Effect of high-dose DCS on freezing when added to lurasidone” value with Wistar-Kyoto (WKY) rats (DCS 300 mg/kg added to lurasidone 0.2 mg/kg, p=0.09) is recorded as “tended to decrease freezing”. Further, in the data set with Wistar-Kyoto (WKY) rats (DCS 300 mg/kg with quetiapine 10 mg/kg, p=0.3), the “Effect of high-dose DCS on freezing in combination with quetiapine” value is on record as “without statistical effect”. The “Number of marbles buried compared to vehicle” value in the data set with mice (D-cycloserine 30 mg/kg IP 30 min prior to test) and in the data set on mice (D-cycloserine 300 mg/kg IP 30 min prior to test) was “did not affect this measure” throughout. Moreover, on NMDAR [5] (NMDAR glycine site), the “Plasma concentrations associated with antagonist effects” value was over 25 μg/mi. For the same compound, at NMDAR [5] (in vivo), the “Plasma levels at which increased liability for toxicity is observed” value is over 35000 ng/mL.
